# Results as given in US5932541A, “Method of adjusting the circadian rhythm of a mammal” (Gruenenthal GmbH, priority 1998, dated 1999).
# Columns and labels:
# [1] = tested on: circadian rhythm of hamster wheel running activity; assay: Phase shift of the circadian rhythm of hamster wheel running activity after intraperitoneal injection; assay type: in vivo, hamster (Mesocricetus auratus)
# Description: A preliminary study was conducted to determine whether peripherally administered 6-methyl-5-oxo-3-thiomorpholinyl-carbonyl-L-histidyl-L-prolinamide (Montirelin) is capable of phase shifting the circadian rhythm of hamster wheel running activity. Twenty-four male hamsters [Mesocricetus auratus; 8-12 weeks of age; Charles River LAK:LVG(SYR)] were housed individually in cages equipped with running wheels, and food and water freely available. Animals were maintained in light-tight, ventilated cabinets (six cages per cabinet) in which the lighting schedule could be controlled. Each animal's wheel running activity was monitored continuously throughout each experiment using a data acquisition software kit (Chronobiology, Stanford, Calif.).
# (§1) Animals were maintained initially in a 14:10 hour light:dark cycle for 7-10 days, then transferred to constant dim red lighting (RR) conditions for the remainder of the experiment (40-60 days). After free-running for 7 days in dim red lighting, animals either received Montirelin or vehicle intraperitoneally. The daily onset of wheel-running activity was defined as circadian time 12 (CT 12), and this time was used as a reference point in determining appropriate circadian injection times. The test animals were divided into eight groups of three animals each, and intraperitoneal injections of the active compound at dosage levels of 10 or 20 mg/kg or of the vehicle alone were administered to respective test groups at circadian time 3 (CT 3) or circadian time 16 (CT 16). The order of injections and time points was randomized. An additional 4 animals maintained in similar lighting conditions were visually observed for two hours post-injection of Montirelin (10 or 20 mg/kg) to determine any overt behavioral effects exerted by this compound. A total of 9 injections were made for each of the eight treatment groups.
# Phase shifts in the circadian activity rhythm were determined by measuring the phase difference between eye-fitted lines connecting the onset of activity for a period of ten days before and ten days after an experimental manipulation.
# hamsters = assay: Visual observation of overt behavior for two hours post-injection; assay type: in vivo, hamster (Mesocricetus auratus)
# Description: as §1
# Sprague-Dawley rats = assay: Subacute repeated-dose intravenous toxicity study with four-week recovery
# Description: Eight nine SPF Slc:SD rats of both sexes (age: four weeks, body weight: 70.0-81.6 g) were purchased from Shizuoka Agriculture Cooperative Association for Laboratory Animals. During a one-week quarantine/acclimation period, the animals were measured for body weight and observed for any general symptoms, and healthy animals showing normal growth were selected and used in the experiment at the age of five weeks.
# Males and females were used in five groups (including the control group) of 10 animals/sex, and additional 10 animals/sex ere added to the control, 0.5 mg/kg and 50 mg/kg groups to investigate the reversibility of the toxic effect of the test substance. All these animals were randomized to each group by weight stratification so that the differences in initial mean body weight were within 2% between groups.
# This study also included the vehicle control group.
# Dosing solutions were prepared by dissolving a weighed amount of the test substance in physiological saline at a concentration of 1 W/V % using a volumetric flask. Lower dosing solutions were obtained by successive 10-fold dilution of the initial solution. The respective dosing solution was repeatedly administered intravenously once daily for 35 days into the tail vein at a rate of 0.2 ml/10 sec. using a 1/4 syringe for injection. The treatment was given at a constant volume of 0.5 ml/100 g body weight in all dose groups, and the control group was treated with physiological saline at the same volume in the same manner.
# Clinical signs in all animals were observed daily between two and four hours after dosing according to Irwin's method of comprehensive observational assessment, and the type, severity, onset time and disappearance time of toxic symptoms were recorded. During the recovery period, the clinical observation was performed once daily in the morning in the same manner. The body weight, food consumption and water consumption were measured in all animals three times weekly in the morning throughout the treatment and recovery periods and recorded.
# [2] = 20 mg/kg i.p., at both CT 3 and CT 16, individual hamsters
# [3] = both sexes, 50 mg/kg, within the range of normal physiological variations
smiles,measurement,setting,value
"CC1SCC(C(=O)N[C@@H](Cc2c[nH]cn2)C(=O)N2CCC[C@H]2C(N)=O)NC1=O (stereo partly drawn) [Montirelin, 6-methyl-5-oxo-3-thiomorpholinylcarbonyl-L-histidyl-L-prolinamide]","Effects on the Phase of Wheel Running Activity, Group Averages",[1]; 10 mg/kg i.p. at CT 3,4.3 ± 2.2 min
same,"Effects on the Phase of Wheel Running Activity, Group Averages",[1]; 10 mg/kg i.p. at CT 16,3.5 ± 2.3 min
same,"Effects on the Phase of Wheel Running Activity, Group Averages",[1]; 20 mg/kg i.p. at CT 3,5.5 ± 2.4 min
same,"Effects on the Phase of Wheel Running Activity, Group Averages",[1]; 20 mg/kg i.p. at CT 16,3.1 ± 2.0 min
same,phase advances in individual hamsters,[1]; [2],≈ 16 min.
same,phase delays in individual hamsters,[1]; [2],≈ 10 min.
same,overt behavior versus vehicle,hamsters; 10 mg/kg i.p. at CTs 3 and 16,no differences in overt behavior
same,overt behavior versus vehicle,hamsters; 20 mg/kg i.p. at both CT 3 and CT 16,clear differences in overt behaviors
same,clinical signs: polyuria,"Sprague-Dawley rats; 5 mg/kg or higher groups, almost all males and females, peak about one hour after dosing day 0-3, disappearing by day 4-28",transient polyuria
same,clinical signs: systemic tremor,"Sprague-Dawley rats; 50 mg/kg group, both sexes, from day 0, disappearing by day 6 in males, day 4 in females",systemic tremor was observed transiently during the injection
same,blood biochemical parameters,Sprague-Dawley rats; all treatment groups,No treatment-related abnormalities
same,gross changes at autopsy,Sprague-Dawley rats; all treatment groups,no treatment-related grossly abnormal changes
same,histopathology of other organs (light microscopy); liver and kidney (electron microscopy),Sprague-Dawley rats; all treatment groups,no remarkable changes
same,histopathology: hypertrophy of serous cells in the submaxillary gland,Sprague-Dawley rats; both sexes of all treatment groups,showed dose-dependency
same,water consumption,"Sprague-Dawley rats; both sexes receiving 5 mg/kg or above, day 2-3 until about week 4",increased
same,"red blood cell count, hemoglobin and hematocrit",Sprague-Dawley rats; [3],increasing tendency
same,total white blood cell count,Sprague-Dawley rats; [3],decreasing tendency
same,"food consumption and body weight, females",Sprague-Dawley rats; females,unremarkable
same,reversibility of observed changes,Sprague-Dawley rats; four-week recovery after discontinuing administration,All observed changes were reversed
same,urinary findings (urine volume),"Sprague-Dawley rats; males and females receiving 5 mg/kg or above, week 2 and 5 of treatment",unremarkable except for an increase in urine volume
same,"body weight gain, males","Sprague-Dawley rats; males, particularly 0.5, 5 and 50 mg/kg",suppressed
same,death,"Sprague-Dawley rats; rats, i.v. once daily 35 days, 0.05-50 mg/kg/day, administration and recovery periods",no death occurred
same,"food consumption, males",Sprague-Dawley rats; treated males compared with control males,tended to decrease food consumption
